Test results taken from paper PMC4632503, “Targeting of Helicobacter pylori thymidylate synthase ThyX by non-mitotoxic hydroxy-naphthoquinones” (Open Biology, 2015).
Entries after “also recorded” stand apart in the source; their conditions may differ. Where two headings read alike, the source gives them in different places.

Columns and labels:
AGS cells [1] = test: cytotoxicity, LDH release; assay type: cell-based, human; conditions: 0.78 to 50 μg ml^−1, 24 h
Experimental: Cytotoxicity of the 2-OH-1,4-NQ derivatives was assessed by measuring lactate dehydrogenase (LDH) release following manufacturer's instructions (Cytotoxicity Detection Kit; Roche Applied Sciences). Briefly, AGS cells (human gastric adenocarcinoma cell line; ATCC Catalog no. CRL-1739TM) were cultured in Ham's F-12 K medium containing 1% of FBS. A total of 3 × 10^4 cells were added per well in a sterile 96-well tissue culture plate. Cells were then treated with different doses of 2-OH-1,4-NQ compounds ranging from 0.78 to 50 μg ml^−1. After a 24 h incubation at 37°C (5% CO2, 90% humidity), the microplates were centrifuged at 250g for 10 min, and the supernatants were carefully removed and transferred into optically clear 96-well microplates (Greiner Bio-One). The dye solution containing iodotetrazolium chloride and sodium lactate was then added to each well to quantify the amount of LDH released into the extracellular medium. LDH was quantified by measuring the A490 using a PowerWave Microplate Spectrophotometer (BioTek).

H. pylori strain SS1 [2] = test: MIC, broth microdilution test, strain SS1; assay type: cell-based; conditions: Helicobacter pylori, 24 h, read-out: minimal inhibitory concentration (MIC) strain SS1
Experimental: (§1) The in vitro anti-bacterial activity of 2-OH-1,4-NQ compounds was assessed against the 26695 and SS1 strains of H. pylori. DMSO was used as control in all experiments.
(§2) Disc diffusion tests were performed in triplicate, including a DMSO-only control on each plate, as specified in the electronic supplementary material. Minimal inhibitory concentrations (MICs) were determined using a broth microdilution test in 24-well microtitre plates. For test inocula, an overnight preculture of H. pylori strains 26695 and SS1 was diluted to an OD600 of approximately 0.1 and 0.5 ml of this suspension was transferred to each well. Ten microlitres of twofold serial dilutions of each compound in DMSO, ranging in concentration from 0.625 to 20 µg ml^−1, were added and the covered plates were incubated for 24 h at 37°C with orbital shaking at 140 r.p.m. under microaerophilic conditions. The MIC was determined as the lowest compound concentration resulting in full growth inhibition after 24 h of incubation. All the tests were done in triplicate, including cell-free and DMSO-only controls.

AGS cells [3] = test: mitotoxicity, resazurin reduction; assay type: cell-based, human; conditions: for mitotoxicity: 0.78 to 50 μg ml^−1, 4 h treatment; for effect on mitochondrial metabolism: low concentrations, resazurin reduction
Experimental: Mitochondrial toxicity (mitotoxicity) was assessed by measuring resazurin (7-hydroxy-3H-phenoxazin-3-one 10-oxide) reduction by following absorption changes at 570 nm (Mitochondrial Viability Assay; Abcam). Resazurin is an indicator dye that reports on oxidation–reduction reactions taking place in the mitochondria of living cells. AGS cells (≅2.5 × 10^5cells well^−1) cultured in a DMEM galactose/glutamine-supplemented medium were seeded in sterile white-walled 96-well clear-bottom microplates and treated for 4 h with different doses of 2-OH-1,4-NQ compounds ranging from 0.78 to 50 μg ml^−1. Addition of the stain solution was followed by a further 4 h incubation at 37°C (5% CO2, 90% humidity) and A570 was measured. Rotenone, an inhibitor of the mitochondrial respiratory chain complex I, was used as a positive control.

H. pylori strain 26695 = test: MIC, broth microdilution test, strain 26695; assay type: cell-based; conditions: Helicobacter pylori
Experimental: as §1, §2

H. pylori 26695 = test: bactericidal activity, viable counts (CFU) in liquid culture; assay type: cell-based, Helicobacter pylori; conditions: exposure up to 24 h, replating on solid media, listed as C8-C1
Experimental: To determine the bactericidal activity of C8-C1 against H. pylori, liquid BHI medium was inoculated with an overnight culture of H. pylori 26695 at an initial OD600 of 0.1. C8-C1 or chloramphenicol, used as bacteriostatic control, were added after 4 h of culture time at final concentrations of 5 and 30 µg ml^−1. To determine the viable counts of surviving bacteria (colony forming units, CFU), aliquots of culture were then plated in triplicate on blood agar plates after 3 and 24 h exposure.

HpThyX [4] = molecular target: T1, HpThyX (Helicobacter pylori, UniProt O26061); test: tritium release (deprotonation) assay of [5-3H]dUMP; assay type: biochemical; conditions: for remaining activity at 100 µM: 20 min, semi-quantitative deprotonation assay, lower = stronger inhibition, read-out: inhibition against ThyX (% remaining activity relative to control); for dTMP-forming activity: quantitative tritium release assay, 100 μM compound, 10 μM ThyX enzyme
T1 construct: His6; made in house; host or cells: Escherichia coli BL21 (plasmid pGL2, pBAD promoter)
T1 sequence (O26061 whole entry): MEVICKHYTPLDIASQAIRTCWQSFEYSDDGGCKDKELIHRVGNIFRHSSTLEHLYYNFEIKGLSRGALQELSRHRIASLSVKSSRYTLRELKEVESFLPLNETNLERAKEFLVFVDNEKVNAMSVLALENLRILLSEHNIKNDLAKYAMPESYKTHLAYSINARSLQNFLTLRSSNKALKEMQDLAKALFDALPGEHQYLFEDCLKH
Experimental: (§3) HpThyX activity was assessed by measuring either deprotonation of [5-^3H]dUMP or NAPDH oxidation activities.
In the tritium release (deprotonation) assays, typical reactions contained 10 mM MgCl2, 10% (v/v) glycerol, 500 µM FAD, 2 mM NADPH, 1 mM CH2H4Folate and 10 mM β-mercaptoethanol in 50 mM HEPES (pH 8). Different concentrations of dUMP were also included in the reaction mixtures. The specific activity of tritiated [5-^3H]dUMP (diammonium salt) stock was 15–30 Ci mmol^−1 (Moravek Biochemicals, CA, USA). 2-OH-1,4-NQ derivatives were prepared at 100 µM in 1% DMSO. Reactions were initiated by adding the enzyme (10 µM) and were stopped after 20 min incubation at 37°C.

HpThyX [5] = molecular target: T1, HpThyX; test: NADPH oxidation assay; assay type: biochemical; conditions: estimated from slope of IC50 versus dUMP concentration
Experimental: as §3
NADPH oxidation assays were performed at 37°C in 96-well plates (Greiner Bio-One). One hundred microlitres of reaction mixture contained HEPES 50 mM (pH 8.6), NaCl 150 mM, FAD 50 µM, β-mercaptoethanol 1.43 mM, NADPH 500 µM and 10 µM of purified HpThyX. dUMP and 2-OH-1,4-NQ concentrations were varied across 12.5–200 µM and 0.3–100 µM, respectively. Microtitre plates were prepared and transferred to the microplate reader Chameleon II (Hidex). The reactions were started by automatically injecting NADPH into individual wells and ThyX activity was determined by following a decrease in absorbance at 340 nm. A molar extinction coefficient of 6220 M^−1 cm^−1 at 340 nm (ε340) was used to quantify NADPH oxidation. Samples with added DMSO and enzyme-free reactions were used as positive and negative controls, respectively.

[6] = tested on: H. pylori strains 26695 and SS1; test: disc diffusion test; assay type: cell-based, Helicobacter pylori; conditions: 10 μg per disc, 72 h
Experimental: as §2
Figure S2. Disk diffusion antibiograms of H. pylori strains 26695 (A) and SS1 (B) with the 2-OH-1,4-NQ compounds. To perform these disc diffusion tests, an overnight culture of the H. pylori strain was diluted to an OD600 ≈ 0.01. Blood agar plates were flooded with 2 ml of the diluted suspension. […] The diameters of each growth inhibition zone were measured on the Petri dish. […]
subtracting the disc diameter (6 mm) from the measured zone. […]

[7] = tolerance of orogastric treatment in infected mice; assay type: in vivo, NMRI mice; conditions: orogastric three times a day, 0.375 mg mouse day^−1, one week
Experimental: (§4) NMRI-specific pathogen-free mice (Charles River Laboratories) were orogastrically inoculated with 10^8 CFU of the H. pylori mouse-adapted strain SS1, prepared in 100 μl of peptone broth. Four groups of six to eight mice were infected by H. pylori strain SS1. Earlier experiments have established that after one week, colonization of mice is fully established. A negative control group of five mice was inoculated with peptone broth alone and was not colonized by H. pylori. One week after infection, three groups of mice were treated orogastrically three times a day with 500 µl of either compound 010-C, 010-E or 010-I dissolved in 2% β-cyclodextrin at 0.25 mg ml^−1 (0.375 mg mouse d^−1) during one week. As a control, the fourth group of mice was treated orogastrically three times a day by the same amount of 2% β-cyclodextrin (17.6 mM), the vehicle of the compounds. […] This average size is in agreement with the average size of β-cyclodextrin particles that self-aggregate in water at a concentration of 12 mM [39]. After treatment, viable H. pylori cells, colonizing the mouse stomach, were enumerated by culture of serial dilutions of homogenized tissue on blood agar plates containing bacitracin (200 μg ml^−1) and nalidixic acid (10 μg ml^−1) as in [40].

H. pylori strain SS1 [8] = test: mouse infection and treatment, gastric colonization; assay type: in vivo, Helicobacter pylori; conditions: NMRI mice, orogastric three times a day, 0.375 mg mouse day^−1 (17 mg kg^−1), one week
Experimental: as §4

[9] = 26695, 24 h, full growth inhibition, read-out: minimal inhibitory concentration (MIC) strain 26695
[10] = 26695, 24 h, value in brackets, read-out: minimal inhibitory concentration (MIC) strain 26695

SMILES	cytotoxicity (AGS cells [1])	MIC (H. pylori strain SS1 [2]; full growth inhibition)	MIC (H. pylori strain SS1 [2]; value in brackets)	mitotoxicity (AGS cells [3])	effect on mitochondrial metabolism (AGS cells [3])	MIC (H. pylori strain 26695; [9])	MIC (H. pylori strain 26695; [10])	kind of anti-microbial activity / viable cells after exposure (H. pylori 26695)	remaining activity at 100 µM (HpThyX [4])	dTMP-forming activity (HpThyX [4])	Ki (HpThyX [5])	activity in disc diffusion tests [6]	MIC (H. pylori strain 26695; liquid cultures, strains 26695 and SS1 not distinguished, read-out: MIC)	tolerance in mice [7]	effect on body or stomach weight ([7]; data not shown)	decrease in the colonization loads (geometric means) versus vehicle (H. pylori strain SS1 [8])	decrease in the colonization loads versus vehicle (H. pylori strain SS1 [8])
COc1ccc(CC2=C(O)C(=O)c3ccccc3C2=O)cc1 [007-A, 2-hydroxy-3-(4-methoxybenzyl)-1,4-naphthoquinone]	non-cytotoxic	10 µg/mL	34 µM	non-mitotoxic	activated the mitochondrial metabolism	10 µg/mL	34 µM	no viable cells were recovered; also recorded: bactericidal	38.5%	suppressed the dTMP-forming activity	367 nM						
O=C1C(Cl)=C(Nc2ccc(F)cc2)C(=O)c2ccccc21 [010-G]	cytotoxic	0.625 µg/mL	2.07 µM			0.625 µg/mL	2.07 µM		21.1%			inactive	~0.625 µg/mL				
CCCCC1=C(O)C(=O)c2ccccc2C1=O [010-I]	non-cytotoxic	10 µg/mL	43.4 µM	non-mitotoxic	activated the mitochondrial metabolism	10 µg/mL	43.4 µM		64.3%	suppressed the dTMP-forming activity	258 nM			tolerated in mice	None of the aforementioned treatments affected either the body or stomach weight	1.22 log	17 fold
